Laboratory results: patent publication US20240277677A1, “SALT FORM AND CRYSTAL FORM THEREOF OF SULFONYLUREA RING SUBSTITUTED COMPOUND” (priority 2022, published 2024)
Read-outs that look alike come from different tables or passages of the source.

Columns and labels:
[1] = Solid stability study of the crystal form A (high temperature, high humidity, light; XRPD, appearance, content, related substances); type: physicochemical
[2] = system: Escherichia coli ATCC 25922; experiment: Spontaneous drug resistance mutation rate (FOR); type: cell-based; conditions: for Drug resistance frequency (24 h) / Drug resistance frequency (48 h) / Drug resistance frequency (72 h): selected total colony count 2.60E+08 CFU
Description: Escherichia coli ATCC 25922 was used to carry out a micro-liquid dilution method according to the Institute of Clinical and Laboratory Standard (CLSI) requirements, the colony for selection with a total colony count of 2.60E+08CFU in Colony-Forming Units (CFU) was selected, […], 4, 8, 16, 32-fold of minimum inhibitory concentration (MIC), and the drug resistance frequency was calculated.

[3] = Pharmacokinetics study in rats in vivo, intravenous administration; parameters: species or system SD male rats; conditions: for AUC(0-t) / C0 / clearance / half-life / Vd: Sprague-Dawley (SD), rat, plasma, SD male rats, dissolved in saline; for AUC(0-t): read-out: AUC0-last Area under plasma concentration-time curve; for C0: read-out: C0 Initial concentration; for clearance: read-out: Cl Clearance rate; for half-life: read-out: T1/2 Half-life period (converted); for Vd: read-out: Vdss Apparent volume of distribution
Description: The pharmacokinetic characteristics in rodents after intravenous administration of the compound was tested with standard scheme. Specifically, SD male rats at the age of 7-10 weeks were administered intravenously with the candidate compound in the experiment. The compound was dissolved in salt water to prepare a clear solution. The plasma samples are collected and analyzed by LC-MS/MS, and the pharmacokinetic parameters were calculated.

[4] = Exploration of other crystal forms by changing crystallization conditions; type: physicochemical
Source text: Purpose: Explore obtaining other crystal forms by changing crystallization conditions.

[5] = Light 10 days (visible light intensity 5000 lux and ultraviolet intensity 90 μw/cm^2, open)
[6] = intravenous injection at 100 mg/kg
[7] = intravenous injection at 300 mg/kg

Structure (SMILES): NC[C@@H]1CN(C[C@@H]2[C@H](NC(=O)/C(=N\OC3(C(=O)O)CC3)c3csc(N)n3)C(=O)N2S(=O)O)S(=O)(=O)N1 (stereo in doubt)
- Purity % ([1]; 0 day): 85.6%
- Total impurities % ([1]; 0 day): 14.4%
- Purity % ([1]; 25° C./75% RH-5 days (open)): 87.4%
- Total impurities % ([1]; 25° C./75% RH-5 days (open)): 12.6%
- Purity % ([1]; 25° C./75% RH-10 days (open)): 85.4%
- Total impurities % ([1]; 25° C./75% RH-10 days (open)): 14.6%
- Related substances and contents (conclusion) ([1]; 60° C., 25° C./75% RH and light conditions): did not change significantly
- Purity % ([1]; 60° C.-5 days (open)): 87.3%
- Total impurities % ([1]; 60° C.-5 days (open)): 12.7%
- Purity % ([1]; 60° C.-10 days (open)): 86.6%
- Total impurities % ([1]; 60° C.-10 days (open)): 13.4%
- Purity % [1, 5]: 86.4%
- Total impurities % [1, 5]: 13.6%
- Purity % ([1]; Light control -10 days): 86.8%
- Total impurities % ([1]; Light control -10 days): 13.2%
- Solid stability (conclusion) ([1]; high temperature, high humidity and light conditions): stable
- Drug resistance rate (conclusion) ([2]; 2-fold of MIC, E. coli ATCC 25922): lower drug resistance rate
- Drug resistance frequency (24 h) ([2]; 2 × MIC): <3.85E−09
- Drug resistance frequency (48 h) ([2]; 2 × MIC): <3.85E−09
- Drug resistance frequency (72 h) ([2]; 2 × MIC): =3.85E−09
- Drug resistance frequency (24 h) ([2]; 4 × MIC): <3.85E−09
- Drug resistance frequency (48 h) ([2]; 4 × MIC): <3.85E−09
- Drug resistance frequency (72 h) ([2]; 4 × MIC): <3.85E−09
- Drug resistance frequency (24 h) ([2]; 8 × MIC): <3.85E−09
- Drug resistance frequency (48 h) ([2]; 8 × MIC): <3.85E−09
- Drug resistance frequency (72 h) ([2]; 8 × MIC): <3.85E−09
- Drug resistance frequency (24 h) ([2]; 16 × MIC): <3.85E−09
- Drug resistance frequency (48 h) ([2]; 16 × MIC): <3.85E−09
- Drug resistance frequency (72 h) ([2]; 16 × MIC): <3.85E−09
- Drug resistance frequency (24 h) ([2]; 32 × MIC): <3.85E−09
- Drug resistance frequency (48 h) ([2]; 32 × MIC): <3.85E−09
- Drug resistance frequency (72 h) ([2]; 32 × MIC): <3.85E−09
- AUC(0-t) [3, 6]: 166 µM·h
- C0 [3, 6]: 581 µM
- clearance [3, 6]: 17.2 mL/min/kg
- half-life [3, 6]: 18.7 min
- Vd [3, 6]: 0.378 L/kg
- AUC(0-t) [3, 7]: 467 µM·h
- C0 [3, 7]: 1380 µM
- clearance [3, 7]: 18.4 mL/min/kg
- half-life [3, 7]: 21.7 min
- Vd [3, 7]: 0.463 L/kg
- Exposure versus dose (conclusion) ([3]; rats, intravenous): increases linearly
- Result of crystallization (exploration of other crystal forms) ([4]; EtOH:H2O = 10:1, first dissolved and then cooled down): No crystal was obtained
- Result of crystallization (exploration of other crystal forms) ([4]; EtOH:H2O = 20:1, first dissolved and then cooled down): No crystal was obtained
- Result of crystallization (exploration of other crystal forms) ([4]; IPA:H2O = 10:1, first dissolved and then cooled down): No crystal was obtained
- Result of crystallization (exploration of other crystal forms) ([4]; IPA:H2O = 20:1, first dissolved and then cooled down): No crystal was obtained
- Result of crystallization (exploration of other crystal forms) ([4]; THF:H2O = 10:1, first dissolved at 40° C., cooled to 0~5° C.): No crystal was obtained
- Result of crystallization (exploration of other crystal forms) ([4]; acetone:H2O = 20:1, first dissolved and then cooled down): No crystal was obtained
- Other crystal forms obtained (conclusion) ([4]; dissolved in different aqueous systems and then crystallized): no other crystal forms were obtained
